Laboratory results: ChEMBL document CHEMBL1145059, “Bispyridinium cyclophanes: novel templates for human choline kinase inhibitors” (J Med Chem, 2003)

What was measured:
Choline kinase alpha = Choline kinase alpha (Homo sapiens, UniProt P35790); experiment: Ex vivo inhibitory activity against human choline kinase was determined
HT-29 = experiment: In vitro inhibition of proliferation in ras transformed cells on the HT-29 (Human tumor) cell line; assay type: functional, cell-based

Chain of Choline kinase alpha (P35790 whole entry): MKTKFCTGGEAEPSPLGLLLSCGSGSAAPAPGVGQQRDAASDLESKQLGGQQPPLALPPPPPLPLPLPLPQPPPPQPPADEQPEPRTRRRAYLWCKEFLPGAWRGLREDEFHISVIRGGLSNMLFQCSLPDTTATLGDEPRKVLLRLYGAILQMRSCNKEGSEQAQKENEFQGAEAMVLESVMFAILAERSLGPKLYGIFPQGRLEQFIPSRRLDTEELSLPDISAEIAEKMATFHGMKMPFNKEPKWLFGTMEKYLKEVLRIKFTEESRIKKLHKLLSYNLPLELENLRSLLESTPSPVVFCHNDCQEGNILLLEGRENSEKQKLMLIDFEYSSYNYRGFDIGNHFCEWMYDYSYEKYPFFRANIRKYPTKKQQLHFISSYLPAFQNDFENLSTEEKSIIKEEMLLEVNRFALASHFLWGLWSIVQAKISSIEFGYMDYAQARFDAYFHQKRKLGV

IC50 (Choline kinase alpha) [µM] | IC50 (HT-29) [µM] | Structure (SMILES)
13.2 | > 100 | c1cc2cc(c1)CNc1cc[n+](cc1)Cc1cccc(c1)C[n+]1ccc(cc1)NC2
0.3 | 28.8 | c1cc2cc(c1)CNc1cc[n+](cc1)Cc1ccc(cc1)C[n+]1ccc(cc1)NC2
24.8 | 58.6 | c1cc2cc(c1)C[n+]1ccc(cc1)NCc1ccc(cc1)CNc1cc[n+](cc1)C2
1.4 | – | CN(c1ccc(Cl)cc1)c1cc[n+](Cc2cc(C[n+]3ccc(N(C)c4ccc(Cl)cc4)cc3)cc(C[n+]3ccc(N(C)c4ccc(Cl)cc4)cc3)c2)cc1
2.1 | 36.9 | c1cc2ccc1CNc1cc[n+](cc1)Cc1ccc(cc1)C[n+]1ccc(cc1)NC2
